Results taken from US20180015075A1, “METHODS AND COMPOSITIONS FOR TREATMENT OF VENOUS MALFORMATION” (Children's Hospital Medical Center, priority 2016, published 2018).
Read-outs that look alike come from different tables or passages of the source.

Key:
Pik3ca^H1047R VM lesions = conditions: mouse, in vivo; cited from earlier work
[1] = system: HUVEC-TIE2-L914F-GFP vascular channels; experiment: Fibrin gel bead assay; type: cell-based, human
Experimental: Assay was performed as described(34). Briefly, coated the beads with HUVEC-GFP or HUVEC-TIE2-L914F-GFP cells (2500 beads with 1×10^6 cells) and mixed coated beads in fibrinogen solution at a concentration of ˜500 beads/ml. Then 0.625 Units/mL of thrombin and 0.5 ml beads/fibrinogen suspension were added per well in 24-well plate successively. After dotting in the 37° C.-incubator, added 1 ml EGM-2 medium and 20,000 fibroblasts per well on the top. Then beads treated by adding DMSO, Ponatinib, rapamycin or combination in the medium

SMILES	VM lesion growth (Pik3ca^H1047R VM lesions)	cell apoptosis (cleaved caspase-3 positive cells) (Pik3ca^H1047R VM lesions)	tube formation (tube area at day 11) [1]	vascular/tube area expansion from day 8 to 14 [1] [%]	vascular/tube area expansion from day 8 to 14 ([1]; 100 nM Ponatinib or 10 nM rapamycin added from day 8, vehicle 54.50±3.81%) [%]
Cc1nc(NC(=O)N2CCC[C@H]2C(N)=O)sc1-c1ccnc(C(C)(C)C(F)(F)F)c1 [BYL719]	strongly inhibited VM lesion growth	increased the number of cleaved caspase-3 positive cells			
CO[C@H]1C[C@@H]2CC[C@@H](C)[C@@](O)(O2)C(=O)C(=O)N2CCCC[C@H]2C(=O)O[C@H]([C@H](C)C[C@@H]2CC[C@@H](OCCO)[C@H](OC)C2)CC(=O)[C@H](C)/C=C(\C)[C@@H](O)[C@@H](OC)C(=O)[C@H](C)C[C@H](C)/C=C/C=C/C=C/1C [Everolimus, 42-O-(2-Hydroxyethyl)-rapamycin]	prevented lesion growth	did not induce cell apoptosis			
Cc1ccc(C(=O)Nc2ccc(CN3CCN(C)CC3)c(C(F)(F)F)c2)cc1C#Cc1cnc2cccnn12 [Ponatinib, 3-(2-imidazo[1,2-b]pyridazin-3-ylethynyl)-4-methyl-N-[4-[(4-methyl-1-piperazinyl)methyl]-3-(trifluoromethyl)phenyl]-benzamide]			almost completely inhibited tube formation	14.79±4.53	
CO[C@H]1C[C@@H]2CC[C@@H](C)[C@@](O)(O2)C(=O)C(=O)N2CCCC[C@H]2C(=O)O[C@H]([C@H](C)C[C@@H]2CC[C@@H](O)[C@H](OC)C2)CC(=O)[C@H](C)/C=C(\C)[C@@H](O)[C@@H](OC)C(=O)[C@H](C)C[C@H](C)/C=C/C=C/C=C/1C [Sirolimus, Rapamycin]					20.25±3.23
